Source: publication PMC3911951, “Crystal Structure of Arginine Methyltransferase 6 from Trypanosoma brucei” (PLoS ONE, 2014)

Legend:
[1] = biological target: T1, TbPRMT6 (Trypanosoma brucei, UniProt Q57U70); experiment: in vitro methylation of Trx-H4tail, western blot for asymmetric dimethyl H4R3; format: biochemical; settings: 40 uM SAM, 1 ug Trx-H4tail (bovine histone H4 residues) as co-substrate; 30 mM Tris pH 8.0, 100 mM NaCl, 1 mM EDTA, 5 mM DTT, 37 C, 12 h
T1 construct: gene Tb05.6E7.1000; full-length, E. coli BL21(DE3), modified pET28a, N-terminal 6xHis cut by TEV protease; 41 kDa monomer, homodimer; residues 1-24 and 228-229 disordered in crystal
T1 sequence (Q57U70 1-368): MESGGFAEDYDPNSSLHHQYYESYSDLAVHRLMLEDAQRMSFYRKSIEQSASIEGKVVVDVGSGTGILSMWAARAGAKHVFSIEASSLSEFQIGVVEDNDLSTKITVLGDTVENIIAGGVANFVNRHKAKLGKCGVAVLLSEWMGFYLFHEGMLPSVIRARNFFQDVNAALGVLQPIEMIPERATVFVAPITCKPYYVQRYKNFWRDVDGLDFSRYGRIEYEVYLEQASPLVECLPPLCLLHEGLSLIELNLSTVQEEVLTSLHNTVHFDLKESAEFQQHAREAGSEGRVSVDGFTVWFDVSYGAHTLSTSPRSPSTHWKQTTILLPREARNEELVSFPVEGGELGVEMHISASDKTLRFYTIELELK

[2] = biological target: T1, TbPRMT6; experiment: X-ray crystal structure, […] A; settings: co-crystallised with three-fold molar excess SAH; 100 mM citrate pH 5.5, 20% PEG3000, 293 K; SAM-binding pocket

Compound | in vitro methylation of Trx-H4tail, western blot for asymmetric dimethyl H4R3 [1] | X-ray crystal structure, 2.35 A [2]
C[S+](CC[C@H](N)C(=O)O)C[C@H]1O[C@@H](n2cnc3c(N)ncnc32)[C@H](O)[C@@H]1O (stereo partly drawn) [SAM, S-adenosyl-L-methionine] | our result also showed that TbPRMT6 can methylate bovine histone H4R3 | 
Nc1ncnc2c1ncn2[C@@H]1O[C@H](CSCC[C@H](N)C(=O)O)[C@@H](O)[C@H]1O [SAH, S-adenosyl-homocysteine] |  | Structures of apo-TbPRMT6 and in complex with SAH (SAH-TbPRMT6) were resolved and refined
